Data taken from patent publication US20060252807A1, “Novel ortho-terphenyl inhibitors of p38 kinase and methods of treating inflammatory disorders” (Kalypsys, Inc., priority 2005, published 2006).

Target: T1, active p38 alpha enzyme (Upstate Biotechnology) (Homo sapiens, UniProt Q16539)
T1 construct: purchased Upstate Biotechnology
Test: p38α biochemical assay (ATP turnover, luminescent detection, Cambrex PKlight)
Conditions: p38α biochemical assay, Table 1 Biological Activity
How it was run: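 Measures total ATP turnover by luminescence after human p38α phosphorylates full MapkapK2 protein. Final ATP is 1.4 uM, and incubation runs 2 hours at 30C. The buffer includes 100 mM MgCl2, 4 mM CaCl2 and 1 mg/ml BSA.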

T1 sequence (Q16539 whole entry): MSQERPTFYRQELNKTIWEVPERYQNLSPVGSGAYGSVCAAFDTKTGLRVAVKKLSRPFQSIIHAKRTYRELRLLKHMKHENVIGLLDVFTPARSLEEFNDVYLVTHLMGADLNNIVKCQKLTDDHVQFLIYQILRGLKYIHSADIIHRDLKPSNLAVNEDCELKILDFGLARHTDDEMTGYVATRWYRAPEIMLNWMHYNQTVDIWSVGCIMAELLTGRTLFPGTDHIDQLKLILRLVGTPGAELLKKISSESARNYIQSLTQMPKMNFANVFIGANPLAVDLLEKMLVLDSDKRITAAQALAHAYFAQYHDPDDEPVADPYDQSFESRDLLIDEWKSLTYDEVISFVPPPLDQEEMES

| SMILES | IC50 [nM] |
| --- | --- |
| CC(C)NC(=O)c1csc(-c2c(-c3ccc(F)cc3)noc2CNC(=O)c2cc3ccccc3o2)n1 [Example 638] | > 1000 |
| CC(C)NC(=O)c1csc(-c2c(-c3ccc(F)cc3)noc2CNC(=O)C2CCc3ccccc32)n1 (stereo not shown) [Example 639] | > 1000 |
| CC(C)NC(=O)c1csc(-c2c(-c3ccc(F)cc3)noc2CNC(=O)C(Cl)(Cl)Cl)n1 [Example 640] | > 1000 |
| CC(C)NC(=O)c1csc(-c2c(-c3ccc(F)cc3)noc2CNC(=O)/C=C/c2ccccc2O)n1 [Example 641] | > 1000 |
| CC(=O)c1ccc(C(=O)NCc2onc(-c3ccc(F)cc3)c2-c2nc(C(=O)NC(C)C)cs2)cc1 [Example 642] | > 1000 |
| CC(C)NC(=O)c1csc(-c2c(-c3ccc(F)cc3)noc2CNC(=O)/C=C/c2cccc(O)c2)n1 [Example 643] | > 1000 |
| CC(=O)c1cccc(C(=O)NCc2onc(-c3ccc(F)cc3)c2-c2nc(C(=O)NC(C)C)cs2)c1 [Example 644] | > 1000 |
| CC(=O)c1ccccc1C(=O)NCc1onc(-c2ccc(F)cc2)c1-c1nc(C(=O)NC(C)C)cs1 [Example 645] | > 1000 |
| CC(C)NC(=O)c1csc(-c2c(-c3ccc(F)cc3)noc2CNC(=O)c2ccc(C(C)C)cc2)n1 [Example 646] | > 1000 |
| Cc1ccccc1CCC(=O)NCc1onc(-c2ccc(F)cc2)c1-c1nc(C(=O)NC(C)C)cs1 [Example 647] | > 1000 |
| Cc1cccc(CCC(=O)NCc2onc(-c3ccc(F)cc3)c2-c2nc(C(=O)NC(C)C)cs2)c1 [Example 648] | > 1000 |
| CCC(C(=O)NCc1onc(-c2ccc(F)cc2)c1-c1nc(C(=O)NC(C)C)cs1)c1ccccc1 (stereo not shown) [Example 649] | > 1000 |
| Cc1cc(C)c(C(=O)NCc2onc(-c3ccc(F)cc3)c2-c2nc(C(=O)NC(C)C)cs2)c(C)c1 [Example 650] | > 1000 |
| CCCc1ccc(C(=O)NCc2onc(-c3ccc(F)cc3)c2-c2nc(C(=O)NC(C)C)cs2)cc1 [Example 651] | > 1000 |
| CC(C)NC(=O)c1csc(-c2c(-c3ccc(F)cc3)noc2CNC(=O)c2ccc3c(c2)OCO3)n1 [Example 652] | > 1000 |
| CC(C)NC(=O)c1csc(-c2c(-c3ccc(F)cc3)noc2CNC(=O)/C=C/c2ccccc2F)n1 [Example 653] | ≤ 1000 |
| CCOc1ccccc1C(=O)NCc1onc(-c2ccc(F)cc2)c1-c1nc(C(=O)NC(C)C)cs1 [Example 654] | > 1000 |
| Cc1ccccc1OCC(=O)NCc1onc(-c2ccc(F)cc2)c1-c1nc(C(=O)NC(C)C)cs1 [Example 655] | > 1000 |
| CC(C)NC(=O)c1csc(-c2c(-c3ccc(F)cc3)noc2CNC(=O)CCc2ccccc2O)n1 [Example 656] | > 1000 |
| COc1ccccc1CC(=O)NCc1onc(-c2ccc(F)cc2)c1-c1nc(C(=O)NC(C)C)cs1 [Example 657] | > 1000 |
| CC(C)NC(=O)c1csc(-c2c(-c3ccc(F)cc3)noc2CNC(=O)C(C)c2ccc(O)cc2)n1 (stereo not shown) [Example 658] | > 1000 |
| CC(C)NC(=O)c1csc(-c2c(-c3ccc(F)cc3)noc2CNC(=O)c2ccccc2[N+](=O)[O-])n1 [Example 659] | > 1000 |
| CC(C)NC(=O)c1csc(-c2c(-c3ccc(F)cc3)noc2CNC(=O)c2cccc([N+](=O)[O-])c2)n1 [Example 660] | > 1000 |
| COc1cccc(O)c1C(=O)NCc1onc(-c2ccc(F)cc2)c1-c1nc(C(=O)NC(C)C)cs1 [Example 661] | > 1000 |
| COc1ccc(O)c(C(=O)NCc2onc(-c3ccc(F)cc3)c2-c2nc(C(=O)NC(C)C)cs2)c1 [Example 662] | > 1000 |
| COc1ccc(C(=O)NCc2onc(-c3ccc(F)cc3)c2-c2nc(C(=O)NC(C)C)cs2)c(O)c1 [Example 663] | > 1000 |

| SMILES | IC50 [nM] |
| --- | --- |
| COc1ccc(C(=O)NCc2onc(-c3ccc(F)cc3)c2-c2nc(C(=O)NC(C)C)cs2)cc1O [Example 664] | > 1000 |
| CC(C)NC(=O)c1csc(-c2c(-c3ccc(F)cc3)noc2CNC(=O)c2cc(O)c(O)c(O)c2)n1 [Example 665] | > 1000 |
| CC(C)NC(=O)c1csc(-c2c(-c3ccc(F)cc3)noc2CNC(=O)Cc2ccc(O)c(F)c2)n1 [Example 666] | > 1000 |
| Cc1cc(C(=O)NCc2onc(-c3ccc(F)cc3)c2-c2nc(C(=O)NC(C)C)cs2)cc(Cl)n1 [Example 667] | > 1000 |
| CC(C)NC(=O)c1csc(-c2c(-c3ccc(F)cc3)noc2CNC(=O)Cc2c(F)cccc2F)n1 [Example 668] | > 1000 |
| CC(C)NC(=O)c1csc(-c2c(-c3ccc(F)cc3)noc2CNC(=O)c2cccc3ccccc23)n1 [Example 669] | ≤ 1000 |
| CC(C)NC(=O)c1csc(-c2c(-c3ccc(F)cc3)noc2CNC(=O)c2ccc(Cl)cc2O)n1 [Example 670] | > 1000 |
| CC(C)NC(=O)c1csc(-c2c(-c3ccc(F)cc3)noc2CNC(=O)c2cc(Cl)ccc2O)n1 [Example 671] | > 1000 |
| CC(C)NC(=O)c1csc(-c2c(-c3ccc(F)cc3)noc2CNC(=O)c2ccc3ncccc3c2)n1 [Example 672] | > 1000 |
| CC(C)NC(=O)c1csc(-c2c(-c3ccc(F)cc3)noc2CNC(=O)c2cnc(O)c(Cl)c2)n1 [Example 673] | > 1000 |
| CC(C)NC(=O)c1csc(-c2c(-c3ccc(F)cc3)noc2CNC(=O)c2ccc(F)cc2Cl)n1 [Example 674] | > 1000 |
| CC(C)NC(=O)c1csc(-c2c(-c3ccc(F)cc3)noc2CNC(=O)c2c(F)cccc2Cl)n1 [Example 675] | > 1000 |
| CC(C)NC(=O)c1csc(-c2c(-c3ccc(F)cc3)noc2CNC(=O)CNC(=O)OC(C)(C)C)n1 [Example 676] | > 1000 |
| Cc1c(C(=O)NCc2onc(-c3ccc(F)cc3)c2-c2nc(C(=O)NC(C)C)cs2)oc2ccccc12 [Example 677] | > 1000 |
| CC(C)NC(=O)c1csc(-c2c(-c3ccc(F)cc3)noc2CNC(=O)CC2Cc3ccccc3C2)n1 [Example 678] | > 1000 |
| CC(C)NC(=O)c1csc(-c2c(-c3ccc(F)cc3)noc2CNC(=O)C2CCc3ccccc3C2)n1 (stereo not shown) [Example 679] | > 1000 |
| COc1ccccc1/C=C/C(=O)NCc1onc(-c2ccc(F)cc2)c1-c1nc(C(=O)NC(C)C)cs1 [Example 680] | > 1000 |
| CC(C)NC(=O)c1csc(-c2c(-c3ccc(F)cc3)noc2CNC(=O)c2csc3ccccc23)n1 [Example 681] | > 1000 |
| CC(C)NC(=O)c1csc(-c2c(-c3ccc(F)cc3)noc2CNC(=O)c2cc3ccccc3s2)n1 [Example 682] | > 1000 |
| CCCCc1ccc(C(=O)NCc2onc(-c3ccc(F)cc3)c2-c2nc(C(=O)NC(C)C)cs2)cc1 [Example 683] | > 1000 |
| CC(C)NC(=O)c1csc(-c2c(-c3ccc(F)cc3)noc2CNC(=O)c2ccc(C(C)(C)C)cc2)n1 [Example 684] | > 1000 |
| CC(C)NC(=O)c1csc(-c2c(-c3ccc(F)cc3)noc2CNC(=O)c2ccc(N(C)C=O)cc2)n1 [Example 685] | > 1000 |
| CC(=O)Nc1cccc(C(=O)NCc2onc(-c3ccc(F)cc3)c2-c2nc(C(=O)NC(C)C)cs2)c1 [Example 686] | > 1000 |
| CC(C)NC(=O)c1csc(-c2c(-c3ccc(F)cc3)noc2CNC(=O)COc2ccccc2C=O)n1 [Example 687] | > 1000 |
| CC(=O)Oc1ccc(C(=O)NCc2onc(-c3ccc(F)cc3)c2-c2nc(C(=O)NC(C)C)cs2)cc1 [Example 688] | > 1000 |
| COC(=O)c1ccc(C(=O)NCc2onc(-c3ccc(F)cc3)c2-c2nc(C(=O)NC(C)C)cs2)cc1 [Example 689] | > 1000 |
